Laboratory results from US4966896A, “Derivative of N-methylcarbamate and insecticide containing the same” (priority 1988, dated 1990).
Read-outs that look alike come from different tables or passages of the source.

Assays:
[1] = tested on: Green rice leafhopper (Nephotettix cincticeps); assay: Mortality of Green rice leafhopper female adults on pot-grown rice plants treated with a 1000 ppm suspension (Test Example 1); type: in vivo
Method: 10 ml of a 1000 ppm suspension of each sample compound (30% wettable powder) was poured into a pot in which rice plant (1.5 leaf stage) was grown, and the pot was placed in a greenhouse enclosed by glass. 3 days after applying the sample compound, the rice plant was covered by a cylindrical metal netting having a diameter of 7.5 cm and a height of 40 cm and 10 female adults of Green rice leafhopper (Nephotettix cincticeps) were released in the netting. The numbers of living and dead insects were checked 48 hours after applying. The test was repeated twice.

[2] = tested on: second instar larvae; assay: Mortality of second instar larvae on pot-grown cabbage treated with a 1000 ppm suspension (Test Example 2); type: in vivo
Method: 30 ml of a 1000 ppm suspension of each sample compound (30% wettable powder) was poured into a pot in which cabbage (2 to 3 leaf stage) was grown, and the pot was placed in a greenhouse enclosed by glass. 3 days after applying the sample compound, the cabbage was covered by a cylindrical metal netting having a diameter of 7.5 cm and a height of 20 cm and 10 second instar larvae were released in the netting. 48 hours after applying the numbers of living and dead insects were checked. The test was repeated twice.

[3] = tested on: Southern root-knot nematode (Meloidogyne incognita); assay: Root-knot index on tomato seedlings in soil contaminated with Southern root-knot nematode (Test Example 3); type: in vivo; details: 3% granule, checked 25 days after transplanting
Method: A predetermined quantity of a 3% granule of each compound was mixed with a soil contaminated with Southern root-knot nematode (Meloidogyne incognita). 2 days after treatment of the compound, 3 to 4 leaf stage tomato seedlings were transplanted, and the root-knot index was checked 25 days later.
The root-knot index was determined with the following standard for nemotoidal evaluation.
2 Moderate number of root-knots found
4 Very many root-knots found

[4] = Acute oral toxicity in mice (Toxicity Test Example); details: mouse, in vivo, male mice, 7 days after administration, Litchfield-Wilcoxon Method
Method: Representative examples of the compound of this invention were administered orally to mice (.male.) and the acute toxicities thereof were tested. LD50 was calculated from the percentage of dead mice according to the Litchfield-Wilcoxon Method 7 days after the administration.

[5] = tested on: warm-blooded animals and fishes; details: prior art statement; cited from earlier work

| SMILES | mortality at 1000 ppm ([1]; 48 h) | mortality at 1000 ppm ([2]; 48 h) | Root-Knot Index ([3]; Active Ingredient 250 g/a) | Root-Knot Index ([3]; Active Ingredient 500 g/a) | mortality at 1000 ppm ([1]; 10 ml of 1000 ppm suspension (30% wettable powder) per pot, insects released 3 days after applying, checked at 48 hours, repeated twice, read-out: Mortality) | mortality at 1000 ppm ([2]; 30 ml of 1000 ppm suspension (30% wettable powder) per pot, larvae released 3 days after applying, checked at 48 hours, repeated twice, read-out: Mortality) | LD50 at 168 h [4] | toxicity to warm-blooded animals and fishes [5] |
| --- | --- | --- | --- | --- | --- | --- | --- | --- |
| CCCNS(=O)(=O)NC(=O)N(C)C(=O)Oc1cccc2c1OC(C)(C)C2 [compound 15, 2,3-dihydro-2,2-dimethylbenzofuran-7-yl N-(propylsulfamoylcarbamoyl) N-methylcarbamate] | 100% | 100% | 2 | 1 |  |  |  |  |
| CN(C(=O)NS(=O)(=O)NC1CCCC1)C(=O)Oc1cccc2c1OC(C)(C)C2 [compound 18] | 80% |  |  |  |  |  |  |  |
| C#CCNS(=O)(=O)NC(=O)N(C)C(=O)Oc1cccc2c1OC(C)(C)C2 [compound 7, 2,3-dihydro-2,2-dimethylbenzofuran-7-yl N-(propargylsulfamoylcarbamoyl) N-methylcarbamate] | 100% | 100% | 2 | 1 |  |  |  |  |
| CCC(C)NS(=O)(=O)NC(=O)N(C)C(=O)Oc1cccc2c1OC(C)(C)C2 (centres unmarked) [compound 16] | 100% | 100% | 2 | 1 |  |  |  |  |
| COC(=O)c1ccccc1NS(=O)(=O)NC(=O)N(C)C(=O)Oc1cccc2c1OC(C)(C)C2 [compound 10] | 90% |  | 2 | 1 |  |  |  |  |
| CNS(=O)(=O)NC(=O)N(C)C(=O)Oc1cccc2c1OC(C)(C)C2 [Compound No. 2, 2,3-Dihydro-2,2-dimethylbenzofuran-7-yl N-(methylsulfamoylcarbamoyl) N-methylcarbamate] | 100% | 100% | 3 | 2 |  |  |  |  |
| CN(C(=O)NS(=O)(=O)Nc1ccccc1Cl)C(=O)Oc1cccc2c1OC(C)(C)C2 [compound 8] | 90% |  | 3 | 2 |  |  |  |  |
| COc1ccccc1NS(=O)(=O)NC(=O)N(C)C(=O)Oc1cccc2c1OC(C)(C)C2 [compound 9] | 90% |  | 3 | 2 |  |  |  |  |
| CC(C)NS(=O)(=O)NC(=O)N(C)C(=O)Oc1cccc2c1OC(C)(C)C2 [Compound No. 4] | 100% | 100% | 2 | 1 |  |  |  |  |
| CCOC(=O)c1ccc(NS(=O)(=O)NC(=O)N(C)C(=O)Oc2cccc3c2OC(C)(C)C3)cc1 [compound 11] | 90% |  | 3 | 2 |  |  |  |  |
| CN(C(=O)NS(=O)(=O)Nc1nccs1)C(=O)Oc1cccc2c1OC(C)(C)C2 [compound 12] | 100% |  | 3 | 2 |  |  |  |  |
| CN(C(=O)NS(=O)(=O)Cl)C(=O)Oc1cccc2c1OC(C)(C)C2 [Compound No. 1, 2,3-Dihydro-2,2-dimethylbenzofuran-7-yl N-(chlorosulfonylcarbamoyl) N-methylcarbamate] | 100% | 100% | 2 | 1 |  |  |  |  |
| CN(C(=O)NS(=O)(=O)Nc1ccccn1)C(=O)Oc1cccc2c1OC(C)(C)C2 [compound 13] | 100% |  | 3 | 2 |  |  |  |  |
| CONS(=O)(=O)NC(=O)N(C)C(=O)Oc1cccc2c1OC(C)(C)C2 [compound 14, 2,3-dihydro-2,2-dimethylbenzofuran-7-yl N-(methoxysulfamoylcarbamoyl) N-methylcarbamate] | 100% |  | 3 | 2 |  |  |  |  |
| CNC(=O)Oc1cccc2c1OC(C)(C)C2 [Control] |  |  |  |  | 100% | 100% | 5 mg/kg |  |
| CN(C(=O)NS(=O)(=O)NC(C)(C)C)C(=O)Oc1cccc2c1OC(C)(C)C2 [compound 17] | 100% | 100% | 2 | 1 |  |  |  |  |
| CN(C(=O)NS(=O)(=O)NC1CCCCC1)C(=O)Oc1cccc2c1OC(C)(C)C2 [compound 19] | 80% |  |  |  |  |  |  |  |
| CCNS(=O)(=O)NC(=O)N(C)C(=O)Oc1cccc2c1OC(C)(C)C2 [Compound No. 3, 2,3-Dihydro,2,2-dimethylbenzofurane-7-yl N-(ethylsulfamoylcarbamoyl) N-methylcarbamate] | 100% | 100% | 2 | 1 |  |  | 170 mg/kg |  |
| CNC(=O)Oc1cccc2c1OC(C)(C)C2 [Control, 2,3-dihydro-2,2-dimethylbenzofuran-7-yl N-methyl-carbamate] |  |  |  |  |  |  |  | extremely toxic to warm-blooded animals and fishes |
| CCCCNS(=O)(=O)NC(=O)N(C)C(=O)Oc1cccc2c1OC(C)(C)C2 [Compound No. 5, 2,3-dihydro-2,2-dimethylbenzofuran-7-yl N-(butylsulfamoylcarbamoyl) N-methylcarbamate] | 100% | 100% | 2 | 1 |  |  | 200 mg/kg |  |
